Data on 8 compounds can be found in patent US9868705B2, “Tetra-aryl cyclobutane inhibitors of androgen receptor action for the treatment of hormone refractory cancer” (The Board of Trustees of the University of Illinois, priority 2013, dated 2018).

Usually IC50 stands for the concentration at which inhibition is half-maximal.

Substitutions are numbered along the chain they refer to. Where two headings read alike, the source gives them in different places.

The target of test [1] is T1, AR (Homo sapiens, UniProt P10275).
T1 sequence (P10275 1-920): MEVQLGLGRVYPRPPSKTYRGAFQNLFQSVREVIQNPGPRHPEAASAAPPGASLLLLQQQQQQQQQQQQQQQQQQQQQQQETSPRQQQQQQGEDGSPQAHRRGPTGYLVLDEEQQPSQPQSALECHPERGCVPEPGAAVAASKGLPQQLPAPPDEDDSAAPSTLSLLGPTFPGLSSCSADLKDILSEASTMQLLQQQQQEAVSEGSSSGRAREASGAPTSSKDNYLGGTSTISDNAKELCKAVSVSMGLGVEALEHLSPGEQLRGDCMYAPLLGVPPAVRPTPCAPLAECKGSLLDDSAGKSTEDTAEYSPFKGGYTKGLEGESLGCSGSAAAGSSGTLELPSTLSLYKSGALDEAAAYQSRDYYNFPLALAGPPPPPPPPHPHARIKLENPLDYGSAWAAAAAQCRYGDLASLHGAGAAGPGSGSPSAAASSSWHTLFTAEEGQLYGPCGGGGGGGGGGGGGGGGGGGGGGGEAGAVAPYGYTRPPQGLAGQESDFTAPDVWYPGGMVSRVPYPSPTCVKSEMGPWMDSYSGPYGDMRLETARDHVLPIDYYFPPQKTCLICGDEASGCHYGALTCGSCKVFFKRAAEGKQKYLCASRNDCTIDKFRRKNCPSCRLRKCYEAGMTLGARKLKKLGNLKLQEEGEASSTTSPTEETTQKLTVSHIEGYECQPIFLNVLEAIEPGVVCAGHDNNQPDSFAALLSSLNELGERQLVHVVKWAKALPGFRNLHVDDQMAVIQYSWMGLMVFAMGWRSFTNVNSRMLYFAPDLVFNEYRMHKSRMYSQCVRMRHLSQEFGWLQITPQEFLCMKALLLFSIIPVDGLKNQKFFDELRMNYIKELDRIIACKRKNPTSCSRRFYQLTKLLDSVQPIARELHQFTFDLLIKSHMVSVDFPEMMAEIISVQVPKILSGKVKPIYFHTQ
Description: AR target gene expression in XIP-AR cells. Particulars: in the presence of R1881.

The subject of test [2] is androgen receptor. Description: Whole-cell competition binding assay using 3H-R1881. The following applies: whole cells; mutant AR and WT-AR.
Test [3] relates to LNCaP cells. Description: LNCaP cell proliferation. The following applies: androgen-stimulated LNCaP cells.
Test [4] deals with LNCaP (AR-T877A) xenograft. In words: LNCaP xenograft model of prostate cancer in mice. The test is classed as in vivo. The text has this:
Our goal in this example is to identify small molecules that block activity of mutant androgen receptors (ARs) but not wild type AR, by synthesizing a library of compounds, to explore possible mechanisms of action, and to evaluate therapeutic potential. A total of 75 tetra-aryl substituted cyclobutanes (CBs) were synthesized. FIG. 18 illustrates a general reaction scheme for the synthesis of some of these compounds from the photo cycloaddition of 2,4-dichloro-6-styrylpyrimidine. FIG. 19 illustrates a general reaction scheme for the synthesis from the photo cycloaddition of 2,4-disubstituted 6-styrylpyrimidines. LNCaP cell proliferation was evaluated. LNCaP cells are a cell line of human cells commonly used in the field of oncology. LNCaP cells are androgen-sensitive human prostate adenocarcinoma cells derived from the left supraclavicular lymph node metastasis from a person in 1977. They are adherent epithelial cells growing in aggregates and as single cells. […] . FIGS. 21A, B, C, and D are graphic summaries of the results for cyclobutane compound CB-7. […] Prostate cancer was the most common tumor among men in the United States in 2012, with over 240,000 diagnoses and approximately 28,000 deaths. […] . FIG. 23 illustrates the androgen receptor ligand binding domain bound to testosterone. FIG. 24 illustrates mouse survival data from a mutant androgen receptor-T877A xenograft experiment for CB-7 at various concentrations. […] . FIGS. 25A and B provide data on AR mutant selectivity for compounds CB-1 to CB-8. […] It is seen that the cyclobutanes show selectivity of mutant androgen receptor activation in the luciferase transcriptional assay in CV-1 cells (a commercially available cell line derived from the kidney of an African green monkey). FIGS. 26 and 27A and B illustrate data from a ligand competition assay for compounds CB-1, CB-6, and CB-7.
Based on the above results, we further evaluated the effects of CB 10 in vivo. […] We also utilized a traditional in vivo model of prostate cancer, the LNCaP xenograft model.

The target of test [5] is T1, AR. In words: Cellular location of AR by microscopy.
Test [6] addresses T1, AR. In words: Chromatin immunoprecipitation of AR at androgen-response elements in XIP-AR cells.
Test [7] addresses T2, T877A mutant androgen receptor (Homo sapiens, UniProt P10275, T878A).
T2 construct: endogenous in cells; host or cells: LNCaP-XIP
T2 sequence (P10275 1-920 T878A): T1 sequence (P10275 1-920) with T878A
In words: FKBP51 endogenous gene expression in LNCaP-XIP cells. The test is classed as cell-based. Particulars: FKBP51 expression, T877A mutant receptor. The source says:
(§1) FIG. 44 depicts data for dose-dependent inhibition of androgen receptor-dependent endogenous gene expression of FKBP51 by Compound 1 of Example IV in LNCaP cells producing exclusively T877A mutant androgen receptor (LNCaP-XIP) and LNCaP cells transfected with wild type androgen receptor (LNCaP-androgen receptor, ratio of wild type to T877A receptor is ca. 3:1).
(§2) To more fully characterize the selectivity of compound 1 for the mutant receptor, we measured its inhibitory potential against the WT and T877A mutant receptor in an AR-dependent luciferase transcription assay in CV-1 cells (FIGS. 43A and B).

The subject of test [8] is wild type androgen receptor. In words: FKBP51 endogenous gene expression in LNCaP-AR cells (wild type AR overexpressed). The class given is cell-based, human. The following applies: at 20 M (so in the source).
Source text: as §1, §2

Test [9] addresses T1, AR. Description: AR relative binding affinity (RBA).
Test [10] concerns the target T3, W741C AR (Homo sapiens, UniProt P10275, W742C).
T3 sequence (P10275 1-920 W742C): T1 sequence (P10275 1-920) with W742C
In words: MMTV-luciferase transcription assay in CV-1 cells, W741C AR.

Test [11] has as its target T4, T877A (LNCaP) AR (Homo sapiens, UniProt P10275, T878A).
T4 construct: expressed in transfected cells; host or cells: CV-1
T4 sequence (P10275 1-920 T878A): T1 sequence (P10275 1-920) with T878A
In words: MMTV-luciferase transcription assay in CV-1 cells, T877A AR. The test is classed as cell-based. The text has this: (§3) These compounds were screened using an AR-responsive MMTV transcription assay in CV-1 cells, utilizing both wild type and T877A (LNCaP) AR. […]

Test [12] has as its target T5, wild type AR (Homo sapiens, UniProt P10275).
T5 construct: expressed in transfected cells; host or cells: CV-1
T5 sequence (P10275 1-920): T1 sequence (P10275 1-920)
In words: MMTV-luciferase transcription assay in CV-1 cells, wild type AR. The following applies: CV1 transient transfection, MMTV-Luciferase reporter; read-out: IC50 WT. The class given is cell-based.
Source text: as §3

Test [13] relates to XIP-AR cells. In words: XIP-AR cell proliferation. Particulars: XIP-AR overexpressing cells.
Setting [14] is: LNCaP (AR-T877A) xenograft, concentrations comparable to MDV3100.

Regarding `COc1cc(C2C(c3ccccc3)C(c3cc(OC)nc(OC)n3)C2c2ccccc2)nc(OC)n1` (stereo not drawn) [CB 1], the “reversal of androgen stimulated gene expression” value in test [1] was “less effective”. Also, the “competition with 3H-R1881 for binding to AR” value (“competition with 3H-R1881” below) in [2] is on record as “effectively compete against R1881 binding”.

Consider `Clc1nccc([C@H]2[C@H](c3ccccc3)[C@@H](c3ccnc(Cl)n3)[C@H]2c2ccccc2)n1` [CB 10], for which, in test [3], the “inhibition of LNCaP cell proliferation” value is recorded as “equally as well as MDV”. Also, in test [4] (escalating dose 5 mpk to 100 mpk), the “tumor weight at study termination” value was “significant dose dependent inhibition of tumor growth”. Also, in test [4] (intact male mice bearing LNCaP xenografts, 50 mpk or 100 mpk), the tumor growth entry is given as “significantly inhibited”. The “reversal of androgen stimulated gene expression” value in test [1] is on record as “reverse androgen stimulated gene expression similar to MDV”. Besides, in [5] (microscopy), the “cellular location of AR after treatment” value is given as “AR is primarily outside of the nucleus”. In addition, in test [2], the “competition with 3H-R1881” value is “effectively compete against R1881 binding”. Moreover, the “AR recruitment to androgen-response elements of PSA and NKX3.1” value in test [6] was “inhibit the recruitment”.

With `COc1ccc(CNc2cc([C@H]3[C@H](c4ccccc4)[C@H](c4cc(NCc5ccc(OC)cc5)nc(NCc5ccc(OC)cc5)n4)[C@H]3c3ccccc3)nc(NCc3ccc(OC)cc3)n2)cc1` [CB-7], in test [4] (setting [14]), the survival of mice entry is on record as “increases survival of mice” and the tumor size entry is “decreases tumor size”. The “competition with 3H-R1881” value in test [2] is recorded as “compete with 3H-R1881”.

Take `Cc1cc([C@H]2[C@H](c3ccccc3)[C@H](c3cc(C)nc(C)n3)[C@H]2c2ccccc2)nc(C)n1` [CB-49]: the “concentration at which maximal inhibition is obtained” value in test [7] is 6 µM. In addition, the “inhibition of FKBP51 gene expression” value in test [8] is recorded as “ca. 80%”. Further, the “AR RBA” value in test [9] was found to be 0.027%.

Take `CNc1cc([C@H]2[C@H](c3ccccc3)[C@H](c3cc(NC)nc(NC)n3)[C@H]2c2ccccc2)nc(NC)n1` [CB-51]: in test [10] (CV1 transient transfection, MMTV-Luciferase reporter), the “IC50 W741C” value is given as “Toxic”. Further, the IC50 in test [11] (CV1 transient transfection, MMTV-Luciferase reporter, read-out: IC50 T877A) was over 20 µM; in [12], over 20 µM.

With `Clc1nccc([C@H]2[C@H](c3ccccc3)[C@@H](c3ccnc(Cl)n3)[C@H]2c2ccccc2)n1` [DPM-21], the “increase in potency for W741C AR over WT receptor” value in test [10] (AR-dependent luciferase transfection assay) was “approximately 10 fold”. In addition, the “increase in potency for T877A mutant over WT” value in [11] (AR-dependent luciferase transcription assay in CV-1 cells) was “approximately 100 fold”. The “IC50 lower than 1” value in [11] (T877A AR) was “approximately 10 fold”. Also, the IC50 in test [11] (read-out: IC50 for T877A AR) was about 0.1 µM.

For `CC(C)(O)C(=O)Nc1ccc([N+](=O)[O-])c(C(F)(F)F)c1` [OHF, hydroxyflutamide, reference compound], the “cell proliferation, compound alone” value in test [13] is listed as “promote cell proliferation”.

With `C[C@]1(O)CC[C@H]2[C@@H]3CCC4=CC(=O)CCC4=C3C=C[C@@]21C` [R1881, reference compound], the “cellular location of AR after treatment” value in test [5] is on record as “promote nuclear translocation”.
